Experiment [1] has as its target cAMP-dependent protein kinase catalytic subunit beta (Homo sapiens, UniProt P22694).
Experiment [2] addresses T1, Mitogen-activated protein kinase kinase kinase 3 (Homo sapiens, UniProt Q99759).
T1 sequence (Q99759 whole entry): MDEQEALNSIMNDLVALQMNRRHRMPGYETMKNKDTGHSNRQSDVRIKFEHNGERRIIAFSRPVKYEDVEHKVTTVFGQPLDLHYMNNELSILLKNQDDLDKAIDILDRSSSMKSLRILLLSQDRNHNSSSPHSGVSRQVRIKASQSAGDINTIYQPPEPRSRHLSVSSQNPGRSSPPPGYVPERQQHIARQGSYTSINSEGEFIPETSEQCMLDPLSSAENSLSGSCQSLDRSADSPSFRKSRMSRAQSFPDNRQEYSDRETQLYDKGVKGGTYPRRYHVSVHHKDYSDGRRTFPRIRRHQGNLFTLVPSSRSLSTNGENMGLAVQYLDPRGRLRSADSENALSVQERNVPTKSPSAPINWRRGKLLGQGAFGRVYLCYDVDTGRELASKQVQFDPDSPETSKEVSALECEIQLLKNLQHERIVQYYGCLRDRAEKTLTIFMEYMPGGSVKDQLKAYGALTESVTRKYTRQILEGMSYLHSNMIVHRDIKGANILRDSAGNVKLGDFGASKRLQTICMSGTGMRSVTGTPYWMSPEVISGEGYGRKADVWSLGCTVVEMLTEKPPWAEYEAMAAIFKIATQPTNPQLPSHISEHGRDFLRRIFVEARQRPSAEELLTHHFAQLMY

Another experiment has as its target Ephrin type-A receptor 4 (Homo sapiens, UniProt P54764).
For experiment [3], the target named is Platelet-derived growth factor receptor beta (Homo sapiens, UniProt P09619).
In experiment [4] the target is Glycogen synthase kinase-3 alpha (Homo sapiens, UniProt P49840).
The target in experiment [5] is T2, Serine/threonine-protein kinase 4 (Homo sapiens, UniProt Q13043).
T2 sequence (Q13043 whole entry): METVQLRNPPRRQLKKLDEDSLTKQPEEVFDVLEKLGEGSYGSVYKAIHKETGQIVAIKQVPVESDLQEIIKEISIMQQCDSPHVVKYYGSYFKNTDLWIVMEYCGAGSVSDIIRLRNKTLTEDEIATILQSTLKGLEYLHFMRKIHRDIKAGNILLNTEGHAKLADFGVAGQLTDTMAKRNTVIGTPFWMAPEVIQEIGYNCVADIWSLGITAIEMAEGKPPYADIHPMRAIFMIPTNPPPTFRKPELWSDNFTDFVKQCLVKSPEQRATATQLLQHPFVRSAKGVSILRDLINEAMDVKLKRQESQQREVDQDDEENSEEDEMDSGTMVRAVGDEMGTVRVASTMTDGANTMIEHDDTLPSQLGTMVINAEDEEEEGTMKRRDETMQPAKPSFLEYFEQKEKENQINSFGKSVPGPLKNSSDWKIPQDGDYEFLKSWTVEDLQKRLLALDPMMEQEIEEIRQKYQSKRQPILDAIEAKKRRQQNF

Experiment [6] deals with Cyclin-dependent kinase 2 (Homo sapiens, UniProt P24941).
The target in experiment [7] is T3, Mitogen-activated protein kinase kinase kinase 5 (Homo sapiens, UniProt Q99683).
T3 sequence (Q99683 whole entry): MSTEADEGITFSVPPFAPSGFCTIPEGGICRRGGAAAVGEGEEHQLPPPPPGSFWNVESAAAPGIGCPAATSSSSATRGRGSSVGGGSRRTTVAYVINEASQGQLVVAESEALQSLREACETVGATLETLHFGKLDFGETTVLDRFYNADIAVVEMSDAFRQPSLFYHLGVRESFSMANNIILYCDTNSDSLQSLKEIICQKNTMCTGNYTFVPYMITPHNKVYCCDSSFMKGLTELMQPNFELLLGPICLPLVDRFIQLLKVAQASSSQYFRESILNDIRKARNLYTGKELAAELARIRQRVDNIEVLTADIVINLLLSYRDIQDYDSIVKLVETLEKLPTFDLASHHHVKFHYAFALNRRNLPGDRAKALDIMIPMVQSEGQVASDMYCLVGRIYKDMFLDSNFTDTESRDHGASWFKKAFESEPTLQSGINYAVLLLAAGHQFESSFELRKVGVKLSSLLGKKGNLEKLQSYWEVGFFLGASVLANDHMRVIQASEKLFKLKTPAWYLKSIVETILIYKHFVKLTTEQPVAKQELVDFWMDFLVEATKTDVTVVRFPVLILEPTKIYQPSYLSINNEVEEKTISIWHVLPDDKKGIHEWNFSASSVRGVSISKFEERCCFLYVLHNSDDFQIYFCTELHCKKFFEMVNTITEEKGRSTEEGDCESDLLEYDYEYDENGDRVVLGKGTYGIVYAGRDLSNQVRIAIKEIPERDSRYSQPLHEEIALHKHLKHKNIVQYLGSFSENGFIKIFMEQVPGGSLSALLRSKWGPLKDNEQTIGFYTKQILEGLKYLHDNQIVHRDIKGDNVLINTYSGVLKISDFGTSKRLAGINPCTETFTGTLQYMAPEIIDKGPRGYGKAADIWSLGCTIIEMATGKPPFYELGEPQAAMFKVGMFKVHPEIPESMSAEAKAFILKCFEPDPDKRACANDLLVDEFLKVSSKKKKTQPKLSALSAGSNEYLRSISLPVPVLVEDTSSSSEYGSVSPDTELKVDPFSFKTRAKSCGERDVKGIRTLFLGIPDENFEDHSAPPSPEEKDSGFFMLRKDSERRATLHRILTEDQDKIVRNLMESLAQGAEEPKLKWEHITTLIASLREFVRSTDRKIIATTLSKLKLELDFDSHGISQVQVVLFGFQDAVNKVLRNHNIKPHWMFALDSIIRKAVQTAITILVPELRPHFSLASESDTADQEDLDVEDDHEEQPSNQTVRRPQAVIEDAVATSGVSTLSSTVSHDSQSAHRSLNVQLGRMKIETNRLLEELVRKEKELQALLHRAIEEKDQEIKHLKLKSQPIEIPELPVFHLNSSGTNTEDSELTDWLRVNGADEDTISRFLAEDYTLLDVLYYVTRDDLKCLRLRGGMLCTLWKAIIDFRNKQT

As a reminder, the Kd is a measure of binding affinity in units of concentration.

SMILES strings stand for the structures. The source made the active and inactive calls. Rule as the data show it, for most assays here: actives have a measured Kd and inactives only a lower limit. A value given as a limit tells only on which side of the number the result lay.
Also: in the data inactive means no Kd found up to 30 µM.

Sequence of Platelet-derived growth factor receptor beta (P09619 whole entry): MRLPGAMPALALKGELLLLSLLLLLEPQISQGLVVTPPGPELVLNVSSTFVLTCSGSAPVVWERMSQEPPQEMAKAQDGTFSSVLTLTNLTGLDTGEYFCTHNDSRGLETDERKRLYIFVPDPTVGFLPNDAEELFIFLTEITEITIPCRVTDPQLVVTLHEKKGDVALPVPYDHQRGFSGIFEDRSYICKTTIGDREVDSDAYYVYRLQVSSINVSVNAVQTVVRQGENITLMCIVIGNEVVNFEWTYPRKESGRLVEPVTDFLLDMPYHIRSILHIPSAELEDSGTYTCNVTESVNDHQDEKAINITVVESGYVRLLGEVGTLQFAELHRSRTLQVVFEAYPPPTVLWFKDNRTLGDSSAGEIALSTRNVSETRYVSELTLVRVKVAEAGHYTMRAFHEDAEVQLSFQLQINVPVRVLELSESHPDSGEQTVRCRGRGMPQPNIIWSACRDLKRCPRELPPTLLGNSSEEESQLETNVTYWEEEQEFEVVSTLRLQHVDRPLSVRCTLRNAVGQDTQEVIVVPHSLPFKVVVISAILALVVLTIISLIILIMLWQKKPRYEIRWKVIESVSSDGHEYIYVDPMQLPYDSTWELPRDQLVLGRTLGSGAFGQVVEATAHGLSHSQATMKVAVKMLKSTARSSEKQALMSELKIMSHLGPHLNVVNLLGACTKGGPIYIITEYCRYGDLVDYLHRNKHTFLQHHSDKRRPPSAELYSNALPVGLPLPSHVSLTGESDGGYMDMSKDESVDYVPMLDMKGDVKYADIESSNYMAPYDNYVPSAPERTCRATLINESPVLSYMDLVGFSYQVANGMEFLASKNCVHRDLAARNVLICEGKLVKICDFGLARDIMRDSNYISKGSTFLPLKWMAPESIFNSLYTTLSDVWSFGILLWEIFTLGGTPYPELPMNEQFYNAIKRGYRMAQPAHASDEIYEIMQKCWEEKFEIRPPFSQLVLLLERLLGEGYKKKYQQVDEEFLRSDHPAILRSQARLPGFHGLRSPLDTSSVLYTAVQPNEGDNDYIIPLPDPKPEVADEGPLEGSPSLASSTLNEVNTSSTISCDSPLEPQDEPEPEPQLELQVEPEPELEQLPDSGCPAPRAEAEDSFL
Sequence of Glycogen synthase kinase-3 alpha (P49840 whole entry): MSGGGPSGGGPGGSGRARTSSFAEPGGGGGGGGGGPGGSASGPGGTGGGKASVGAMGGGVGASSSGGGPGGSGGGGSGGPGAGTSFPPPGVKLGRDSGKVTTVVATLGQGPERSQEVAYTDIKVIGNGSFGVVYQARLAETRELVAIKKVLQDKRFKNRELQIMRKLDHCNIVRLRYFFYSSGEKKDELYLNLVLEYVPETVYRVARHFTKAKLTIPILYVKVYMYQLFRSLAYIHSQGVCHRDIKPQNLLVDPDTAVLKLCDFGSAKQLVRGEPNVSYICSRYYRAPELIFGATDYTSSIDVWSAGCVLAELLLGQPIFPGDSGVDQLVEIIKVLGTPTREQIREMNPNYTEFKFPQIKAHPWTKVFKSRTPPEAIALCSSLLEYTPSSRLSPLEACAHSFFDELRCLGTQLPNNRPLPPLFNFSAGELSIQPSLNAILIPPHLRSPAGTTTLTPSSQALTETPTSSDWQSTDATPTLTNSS
Sequence of Ephrin type-A receptor 4 (P54764 whole entry): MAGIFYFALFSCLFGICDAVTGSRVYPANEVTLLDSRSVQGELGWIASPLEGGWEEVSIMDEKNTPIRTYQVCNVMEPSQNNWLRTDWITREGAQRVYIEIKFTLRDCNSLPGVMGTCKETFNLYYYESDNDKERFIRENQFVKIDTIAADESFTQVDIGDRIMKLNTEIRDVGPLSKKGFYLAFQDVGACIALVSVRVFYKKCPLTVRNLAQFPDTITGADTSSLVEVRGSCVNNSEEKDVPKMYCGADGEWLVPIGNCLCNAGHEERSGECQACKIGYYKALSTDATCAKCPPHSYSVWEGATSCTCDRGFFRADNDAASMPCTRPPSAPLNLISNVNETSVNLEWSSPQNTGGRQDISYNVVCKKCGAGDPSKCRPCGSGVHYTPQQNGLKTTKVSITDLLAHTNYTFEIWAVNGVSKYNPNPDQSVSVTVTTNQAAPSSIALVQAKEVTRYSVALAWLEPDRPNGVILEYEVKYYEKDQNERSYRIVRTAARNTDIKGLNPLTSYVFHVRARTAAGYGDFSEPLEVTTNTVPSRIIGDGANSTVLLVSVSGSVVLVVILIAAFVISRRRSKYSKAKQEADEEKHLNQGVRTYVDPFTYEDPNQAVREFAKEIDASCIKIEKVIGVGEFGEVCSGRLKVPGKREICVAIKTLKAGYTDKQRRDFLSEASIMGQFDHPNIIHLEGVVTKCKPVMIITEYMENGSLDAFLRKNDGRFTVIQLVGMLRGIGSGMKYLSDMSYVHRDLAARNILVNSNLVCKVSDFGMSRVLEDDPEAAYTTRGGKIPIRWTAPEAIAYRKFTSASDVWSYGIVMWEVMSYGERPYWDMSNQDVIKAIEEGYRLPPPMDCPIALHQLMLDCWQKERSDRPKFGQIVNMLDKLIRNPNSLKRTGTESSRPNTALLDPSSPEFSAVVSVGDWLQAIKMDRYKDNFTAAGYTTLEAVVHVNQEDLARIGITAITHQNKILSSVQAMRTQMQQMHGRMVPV

As for `CC(C)(O)CC(=O)NCCn1ccc2ncnc(Nc3ccc(Oc4cccc(C(F)(F)F)c4)c(Cl)c3)c21` [TAK-285], the Kd (in experiment [1]; in experiment [2]; at Ephrin type-A receptor 4; in experiment [3]; in experiment [4]; in experiment [5]) was > 30 µM (inactive) throughout. For the same compound, the Kd in experiment [6] and in experiment [7] was > 30 µM (inactive) in each case.
Turning to `CNC(=O)c1cc(COc2nnc(Nc3ccc(Cl)cc3)c3ccoc23)ccn1` [TELATINIB], the Kd in experiment [1] was > 30 µM (inactive); in experiment [2], > 30 µM (inactive); at Ephrin type-A receptor 4 it was > 30 µM (inactive); in experiment [3], 0.555 µM (active); in experiment [4] it was > 30 µM (inactive); in experiment [5] it was > 30 µM (inactive). For the same compound, the Kd in experiment [6] and in experiment [7] was > 30 µM (inactive) throughout.
Regarding `COc1cccc(Nc2ncnn3ccc(CN4CC[C@@H](N)[C@H](O)C4)c23)c1` [BMS-690514], the Kd in experiment [1] is 1.21 µM (active); in experiment [2] it was 0.546 µM (active); on Ephrin type-A receptor 4 it was > 30 µM (inactive); in experiment [3], > 30 µM (inactive); in experiment [4], > 30 µM (inactive); in experiment [5], > 30 µM (inactive). Besides, the Kd in experiment [6] and in experiment [7] was > 30 µM (inactive) throughout.
Regarding `S=C(NCc1ccc2c(c1)OCO2)N1CCN(c2ncnc3c2oc2ccccc23)CC1` [AMUVATINIB], the Kd (in experiment [1]; in experiment [2]; at Ephrin type-A receptor 4; in experiment [3]; in experiment [4]; in experiment [5]) was > 30 µM (inactive) in each case. The Kd in experiment [6] and in experiment [7] was > 30 µM (inactive) throughout.
With `COc1cc(F)c(F)c(Nc2ccc(I)cc2F)c1NS(=O)(=O)C1(C[C@H](O)CO)CC1` [REFAMETINIB], the Kd (in experiment [1]; in experiment [2]; on Ephrin type-A receptor 4; in experiment [3]; in experiment [4]; in experiment [5]) was > 30 µM (inactive) in each case. Also, the Kd in experiment [6] and in experiment [7] was > 30 µM (inactive) each time.
In the case of `Cc1ccc(C(=O)Nc2ccc(Oc3cc4cnn(C)c4cc3-c3cn[nH]c3)c(F)c2)c(=O)n1-c1ccc(F)cc1` [MERESTINIB], the Kd (in experiment [1]; in experiment [2]; at Ephrin type-A receptor 4; in experiment [3]; in experiment [4]; in experiment [5]) was > 30 µM (inactive) each time. Further, the Kd in experiment [6] and in experiment [7] was > 30 µM (inactive) throughout.
As for `C=CC(=O)Nc1cc(Nc2nccc(-c3cn(C)c4ccccc34)n2)c(OC)cc1N(C)CCN(C)C` [OSIMERTINIB], the Kd (in experiment [1]; in experiment [2]; at Ephrin type-A receptor 4; in experiment [3]; in experiment [4]; in experiment [5]) was > 30 µM (inactive) in each case. In addition, the Kd in experiment [6] and in experiment [7] was > 30 µM (inactive) in each case.
Turning to `COc1cc(Nc2ncc(F)c(Nc3ccc4c(n3)N(COP(=O)(O)O)C(=O)C(C)(C)O4)n2)cc(OC)c1OC` [FOSTAMATINIB], the Kd (in experiment [1]; in experiment [2]; on Ephrin type-A receptor 4; in experiment [3]; in experiment [4]; in experiment [5]) was > 30 µM (inactive) throughout. The Kd in experiment [6] and in experiment [7] was > 30 µM (inactive) throughout.
On to `NC[C@@](O)(c1ccc(Cl)cc1)c1ccc(-c2cn[nH]c2)cc1` [AT-13148], for which the Kd in experiment [1] is 0.014 µM (active); in experiment [2], > 30 µM (inactive); on Ephrin type-A receptor 4, > 30 µM (inactive); in experiment [3], > 30 µM (inactive); in experiment [4], > 30 µM (inactive); in experiment [5], > 30 µM (inactive). Moreover, the Kd in experiment [6] and in experiment [7] was > 30 µM (inactive) in each case.
In the case of `O=S(=O)(c1cccc2c(O)nccc12)N1CCCNCC1` [HYDROXYFASUDIL], the Kd (in experiment [1]; in experiment [2]; on Ephrin type-A receptor 4; in experiment [3]; in experiment [4]; in experiment [5]) was > 30 µM (inactive) each time. The Kd in experiment [6] and in experiment [7] was > 30 µM (inactive) throughout.
Take `O=C(O)c1ccc2c(c1)nc(Nc1cccc(Cl)c1)c1ccncc12` [SILMITASERTIB]: the Kd was > 30 µM (inactive) in experiment [1]; > 30 µM (inactive) in experiment [2]; > 30 µM (inactive) at Ephrin type-A receptor 4; > 30 µM (inactive) in experiment [3]; 17.3 µM (active) in experiment [4]; > 30 µM (inactive) in experiment [5]. Besides, the Kd in experiment [6] was 1.69 µM (active); in experiment [7] it was > 30 µM (inactive).
`CCc1nc(C(N)=O)c(Nc2ccc(N3CCC(N4CCN(C)CC4)CC3)c(OC)c2)nc1NC1CCOCC1` [GILTERITINIB]: the Kd in experiment [1] was > 30 µM (inactive); in experiment [2] it was > 30 µM (inactive); at Ephrin type-A receptor 4 it was > 30 µM (inactive); in experiment [3], 0.51 µM (active); in experiment [4] it was > 30 µM (inactive); in experiment [5] it was > 30 µM (inactive). For the same compound, the Kd in experiment [6] and in experiment [7] was > 30 µM (inactive) in each case.
Take `Cc1c(NC(=O)OC[C@@H]2COCCN2)cn2ncnc(Nc3ccc4c(cnn4Cc4cccc(F)c4)c3)c12` [AC-480]: the Kd (in experiment [1]; in experiment [2]; at Ephrin type-A receptor 4; in experiment [3]; in experiment [4]; in experiment [5]) was > 30 µM (inactive) in each case. In addition, the Kd in experiment [6] and in experiment [7] was > 30 µM (inactive) in each case.

Source of the values: ChEMBL document CHEMBL3991601, “The target landscape of clinical kinase drugs” (Science, 2017).
